Data set [1] has as its target T1, ACK (Homo sapiens, UniProt Q07912).
T1 construct: purchased Carna Biosciences, Inc
The data set is described as follows: Off-chip Mobility Shift Assay, kinase inhibition. The following applies: recombinant ACK; for inhibition at 0.01 µM: at 10 nM. In kind it is biochemical.

The target in data set [2] is T2, EPHA1 (Homo sapiens, UniProt P21709).
T2 construct: purchased Carna Biosciences, Inc
T2 sequence (P21709 26-976): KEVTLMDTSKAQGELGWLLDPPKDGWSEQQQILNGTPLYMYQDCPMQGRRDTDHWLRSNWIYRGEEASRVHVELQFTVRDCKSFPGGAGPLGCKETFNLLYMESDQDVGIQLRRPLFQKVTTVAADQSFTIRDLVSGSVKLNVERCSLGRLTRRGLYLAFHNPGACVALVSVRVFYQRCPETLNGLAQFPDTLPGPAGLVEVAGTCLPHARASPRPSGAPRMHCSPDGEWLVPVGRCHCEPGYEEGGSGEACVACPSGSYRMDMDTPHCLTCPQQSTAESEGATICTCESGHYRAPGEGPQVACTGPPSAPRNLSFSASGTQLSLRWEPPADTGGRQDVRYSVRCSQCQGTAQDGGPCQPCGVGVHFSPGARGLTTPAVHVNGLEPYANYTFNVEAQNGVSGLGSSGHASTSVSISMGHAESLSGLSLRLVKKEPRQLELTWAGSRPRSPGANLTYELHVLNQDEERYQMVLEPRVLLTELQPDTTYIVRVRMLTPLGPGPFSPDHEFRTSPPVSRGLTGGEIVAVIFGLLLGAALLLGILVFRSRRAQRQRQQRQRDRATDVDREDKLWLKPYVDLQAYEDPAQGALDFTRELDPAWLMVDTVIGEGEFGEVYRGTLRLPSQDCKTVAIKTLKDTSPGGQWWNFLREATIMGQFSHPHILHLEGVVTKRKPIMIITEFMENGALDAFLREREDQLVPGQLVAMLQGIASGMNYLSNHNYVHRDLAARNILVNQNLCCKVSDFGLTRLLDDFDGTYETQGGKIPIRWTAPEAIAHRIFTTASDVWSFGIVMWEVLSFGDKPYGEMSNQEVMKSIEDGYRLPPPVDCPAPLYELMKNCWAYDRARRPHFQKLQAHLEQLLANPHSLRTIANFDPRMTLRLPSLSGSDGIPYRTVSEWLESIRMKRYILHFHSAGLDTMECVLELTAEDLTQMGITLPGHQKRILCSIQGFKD
The data set can be described thus: Off-chip Mobility Shift Assay, kinase inhibition. In kind it is biochemical. The following applies: recombinant EPHA1; for inhibition at 0.001 µM: at 1 nM; for inhibition at 0.01 µM: at 10 nM.

Data set [3] concerns the target T3, ABL (Homo sapiens, UniProt P00519).
T3 construct: purchased Carna Biosciences, Inc
The data set can be described thus: Off-chip Mobility Shift Assay, kinase inhibition. It counts as biochemical. The following applies: recombinant ABL; for inhibition at 0.001 µM: at 1 nM; for inhibition at 0.01 µM: at 10 nM.

Data set [4] addresses T4, PIK3CA/PIK3R1 (Homo sapiens, UniProt P42336).
T4 construct: purchased Carna Biosciences, Inc
The data set can be described thus: Off-chip Mobility Shift Assay, kinase inhibition. In kind it is biochemical. The following applies: recombinant PIK3CA/PIK3R1; for inhibition at 0.01 µM: at 10 nM.

In data set [5] the target is T5, FRK (Homo sapiens, UniProt P42685).
T5 construct: purchased Carna Biosciences, Inc
T5 sequence (P42685 whole entry): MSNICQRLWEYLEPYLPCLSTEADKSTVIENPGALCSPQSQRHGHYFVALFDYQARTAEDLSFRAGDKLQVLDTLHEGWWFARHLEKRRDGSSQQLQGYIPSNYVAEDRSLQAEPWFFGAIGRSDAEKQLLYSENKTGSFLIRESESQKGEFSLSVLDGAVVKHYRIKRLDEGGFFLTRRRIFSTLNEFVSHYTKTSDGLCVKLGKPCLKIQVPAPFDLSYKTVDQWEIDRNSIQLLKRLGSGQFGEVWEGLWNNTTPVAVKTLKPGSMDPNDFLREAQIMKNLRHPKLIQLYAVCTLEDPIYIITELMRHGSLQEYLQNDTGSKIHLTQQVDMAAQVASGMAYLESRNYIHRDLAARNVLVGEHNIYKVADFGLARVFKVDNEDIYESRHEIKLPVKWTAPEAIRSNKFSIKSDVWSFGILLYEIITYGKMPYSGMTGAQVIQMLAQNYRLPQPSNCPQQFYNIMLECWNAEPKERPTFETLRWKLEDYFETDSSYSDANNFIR
The data set is described as follows: Off-chip Mobility Shift Assay, kinase inhibition. The following applies: recombinant FRK; for inhibition at 0.001 µM: at 1 nM; for inhibition at 0.01 µM: at 10 nM. It counts as biochemical.

For data set [6], the system named is Mino. The data set can be described thus: Cell inhibition assay (PrestoBlue, 48 h). It counts as cell-based. The following applies: Homo sapiens, Mino cells, read-out: IC50, inhibition of growth.
Data set [7] is described as follows: Metabolic stability in human liver microsomes. It counts as in vitro ADME. The following applies: for metabolic stability compared to dasatinib: human liver microsomes; for In vitro t1/2: 1 μM, human liver microsomes 0.5 mg/mL, NADPH and UDPGA, 37° C. Here is the method: FIG. 1. Metabolic stability of compounds in human liver microsomal incubations. […] Concentrations at specified times were determined by LC-MS/MS.
The incubation reactions at various time points were quenched by adding 2× volumes of acetonitrile containing 100 nM reserpine. The quenched incubation samples were centrifuged at 4000 RPM for 10 min, and the supernatants injected for LC/MS/MS analysis. LC/MS/MS analysis was carried out on a AB Sciex 4000 Q Trap LC/MS/MS system coupled with Shimadzu Prominence UFLCXR 20 series (including a CBM-20A controller, two LC-20ADXR solvent delivery units, SIL-20AC HT autosampler, CTO-20A column oven, and a SPD-20A UV detector).

For data set [8], the target named is T6, FYN(isoform a) (Homo sapiens, UniProt P06241).
T6 construct: purchased Carna Biosciences, Inc
T6 sequence (P06241 whole entry, canonical isoform): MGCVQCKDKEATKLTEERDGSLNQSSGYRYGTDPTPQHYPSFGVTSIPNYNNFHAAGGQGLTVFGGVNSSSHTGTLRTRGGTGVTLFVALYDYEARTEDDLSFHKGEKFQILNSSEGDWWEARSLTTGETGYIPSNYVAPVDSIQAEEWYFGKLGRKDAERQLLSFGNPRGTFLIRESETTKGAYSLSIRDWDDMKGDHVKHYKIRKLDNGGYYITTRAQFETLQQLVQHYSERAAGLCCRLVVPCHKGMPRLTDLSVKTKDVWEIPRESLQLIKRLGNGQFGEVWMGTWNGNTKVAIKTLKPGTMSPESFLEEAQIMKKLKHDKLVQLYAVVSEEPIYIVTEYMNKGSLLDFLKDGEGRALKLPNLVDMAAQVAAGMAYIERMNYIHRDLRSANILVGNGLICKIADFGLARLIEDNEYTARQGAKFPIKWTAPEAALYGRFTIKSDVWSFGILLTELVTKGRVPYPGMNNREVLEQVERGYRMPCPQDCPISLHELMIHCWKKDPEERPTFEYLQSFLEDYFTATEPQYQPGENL
The data set can be described thus: Off-chip Mobility Shift Assay, kinase inhibition. It counts as biochemical. The following applies: recombinant FYN(isoform a); for inhibition at 0.001 µM: at 1 nM; for inhibition at 0.01 µM: at 10 nM.

Data set [9] deals with T7, HCK (Homo sapiens, UniProt P08631).
T7 construct: purchased Carna Biosciences, Inc
The data set is described as follows: Off-chip Mobility Shift Assay, kinase inhibition. In kind it is biochemical. The following applies: recombinant HCK; for inhibition at 0.001 µM: at 1 nM; for inhibition at 0.01 µM: at 10 nM, read-out: inhibition.

Data set [10] concerns the target T8, ABL(E255K) (Homo sapiens, UniProt P00519, E255K).
T8 construct: purchased Carna Biosciences, Inc
The data set can be described thus: Off-chip Mobility Shift Assay, kinase inhibition. It counts as biochemical. The following applies: recombinant ABL(E255K); for inhibition at 0.001 µM: at 1 nM; for inhibition at 0.01 µM: at 10 nM.

In data set [11] the target is T9, TEC (Homo sapiens, UniProt P42680).
T9 construct: purchased Carna Biosciences, Inc
T9 sequence (P42680 1-631): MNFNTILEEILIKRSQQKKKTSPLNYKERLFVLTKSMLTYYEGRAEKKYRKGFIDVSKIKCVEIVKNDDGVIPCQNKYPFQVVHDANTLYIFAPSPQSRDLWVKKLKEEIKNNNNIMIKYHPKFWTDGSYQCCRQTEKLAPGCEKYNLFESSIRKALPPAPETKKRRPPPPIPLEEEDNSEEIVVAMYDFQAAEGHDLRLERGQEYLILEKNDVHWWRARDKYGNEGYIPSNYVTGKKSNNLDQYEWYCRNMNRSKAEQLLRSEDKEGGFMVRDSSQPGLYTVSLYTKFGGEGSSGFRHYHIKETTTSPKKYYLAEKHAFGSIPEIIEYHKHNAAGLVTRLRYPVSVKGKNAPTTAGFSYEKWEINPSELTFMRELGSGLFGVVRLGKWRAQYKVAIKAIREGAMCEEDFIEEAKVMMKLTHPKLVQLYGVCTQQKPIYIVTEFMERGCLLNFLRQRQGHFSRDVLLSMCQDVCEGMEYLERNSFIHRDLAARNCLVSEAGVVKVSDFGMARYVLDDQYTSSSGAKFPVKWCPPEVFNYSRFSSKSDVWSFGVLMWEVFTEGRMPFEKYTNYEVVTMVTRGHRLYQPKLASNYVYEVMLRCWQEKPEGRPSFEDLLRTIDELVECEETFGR
The data set is described as follows: Off-chip Mobility Shift Assay, kinase inhibition. The following applies: at 1 nM; recombinant TEC. In kind it is biochemical.

Where only a bound is given, the exact number is not on record here.

From patent US10479786B2, “Protein kinase inhibitors” (Princeton Drug Discovery Inc, priority 2016, dated 2019) come the findings set out here.

A word on the inhibition: it is the relative decrease from the control value, in per cent. What is called IC50 is the point on the concentration scale where inhibition reaches its midpoint.

T8 sequence (P00519 whole entry E255K): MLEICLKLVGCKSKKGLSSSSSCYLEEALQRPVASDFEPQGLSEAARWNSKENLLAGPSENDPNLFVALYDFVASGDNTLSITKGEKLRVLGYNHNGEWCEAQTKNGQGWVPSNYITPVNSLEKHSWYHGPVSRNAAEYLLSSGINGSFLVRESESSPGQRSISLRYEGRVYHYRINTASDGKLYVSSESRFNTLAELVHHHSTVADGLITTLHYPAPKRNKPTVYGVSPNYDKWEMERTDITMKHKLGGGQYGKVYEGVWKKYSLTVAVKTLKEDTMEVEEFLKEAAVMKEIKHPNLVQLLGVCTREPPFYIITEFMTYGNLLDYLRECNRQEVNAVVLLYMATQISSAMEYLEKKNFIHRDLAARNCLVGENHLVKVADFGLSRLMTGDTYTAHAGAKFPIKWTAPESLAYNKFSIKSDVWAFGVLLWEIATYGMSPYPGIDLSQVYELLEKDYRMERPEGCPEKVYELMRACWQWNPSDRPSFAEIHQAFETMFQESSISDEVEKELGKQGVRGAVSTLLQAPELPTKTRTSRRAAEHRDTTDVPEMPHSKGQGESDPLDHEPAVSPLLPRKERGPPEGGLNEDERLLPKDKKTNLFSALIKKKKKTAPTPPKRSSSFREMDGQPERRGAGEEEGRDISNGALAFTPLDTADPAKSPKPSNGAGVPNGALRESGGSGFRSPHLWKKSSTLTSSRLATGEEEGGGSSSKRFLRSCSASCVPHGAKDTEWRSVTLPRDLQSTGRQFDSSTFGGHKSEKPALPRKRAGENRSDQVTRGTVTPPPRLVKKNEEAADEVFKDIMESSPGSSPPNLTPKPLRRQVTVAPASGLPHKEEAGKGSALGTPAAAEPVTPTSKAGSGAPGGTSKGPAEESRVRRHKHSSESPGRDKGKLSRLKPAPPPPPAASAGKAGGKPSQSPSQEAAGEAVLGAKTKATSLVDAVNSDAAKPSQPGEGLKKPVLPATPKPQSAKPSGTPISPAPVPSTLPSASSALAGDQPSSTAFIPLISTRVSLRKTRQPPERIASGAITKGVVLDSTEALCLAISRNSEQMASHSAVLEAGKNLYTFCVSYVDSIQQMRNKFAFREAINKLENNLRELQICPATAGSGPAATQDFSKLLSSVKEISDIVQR
T1 sequence (Q07912 whole entry): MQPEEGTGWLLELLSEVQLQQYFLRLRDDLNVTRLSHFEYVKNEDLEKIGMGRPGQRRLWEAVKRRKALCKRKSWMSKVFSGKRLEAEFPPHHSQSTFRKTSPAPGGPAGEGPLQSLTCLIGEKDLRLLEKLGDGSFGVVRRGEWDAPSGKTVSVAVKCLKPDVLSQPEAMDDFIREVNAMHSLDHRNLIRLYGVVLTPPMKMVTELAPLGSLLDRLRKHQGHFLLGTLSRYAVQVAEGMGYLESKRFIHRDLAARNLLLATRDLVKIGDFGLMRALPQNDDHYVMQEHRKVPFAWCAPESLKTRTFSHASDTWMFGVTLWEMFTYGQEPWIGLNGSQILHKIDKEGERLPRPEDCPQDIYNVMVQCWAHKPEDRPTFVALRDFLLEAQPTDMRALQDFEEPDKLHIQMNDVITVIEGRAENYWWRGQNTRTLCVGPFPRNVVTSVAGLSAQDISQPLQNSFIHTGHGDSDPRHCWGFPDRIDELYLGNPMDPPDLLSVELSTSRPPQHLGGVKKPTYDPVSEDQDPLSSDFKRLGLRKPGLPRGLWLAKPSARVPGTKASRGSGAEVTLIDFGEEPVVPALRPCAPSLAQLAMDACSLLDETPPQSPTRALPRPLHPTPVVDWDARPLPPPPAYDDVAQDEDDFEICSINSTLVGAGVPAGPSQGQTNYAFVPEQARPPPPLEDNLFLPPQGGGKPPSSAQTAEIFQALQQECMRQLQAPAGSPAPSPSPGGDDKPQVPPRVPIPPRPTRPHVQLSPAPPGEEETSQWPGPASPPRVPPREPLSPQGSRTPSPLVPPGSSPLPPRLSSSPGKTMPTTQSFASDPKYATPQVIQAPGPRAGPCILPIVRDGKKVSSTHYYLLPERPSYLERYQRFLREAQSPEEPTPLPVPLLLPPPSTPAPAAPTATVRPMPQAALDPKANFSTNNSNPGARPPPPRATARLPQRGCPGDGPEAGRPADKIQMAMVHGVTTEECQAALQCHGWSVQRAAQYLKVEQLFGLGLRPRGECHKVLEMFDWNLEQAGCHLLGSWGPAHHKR
T3 sequence (P00519 whole entry): as the sequence (P00519 whole entry E255K) above, with K255E counted along it
T4 sequence (P42336 whole entry): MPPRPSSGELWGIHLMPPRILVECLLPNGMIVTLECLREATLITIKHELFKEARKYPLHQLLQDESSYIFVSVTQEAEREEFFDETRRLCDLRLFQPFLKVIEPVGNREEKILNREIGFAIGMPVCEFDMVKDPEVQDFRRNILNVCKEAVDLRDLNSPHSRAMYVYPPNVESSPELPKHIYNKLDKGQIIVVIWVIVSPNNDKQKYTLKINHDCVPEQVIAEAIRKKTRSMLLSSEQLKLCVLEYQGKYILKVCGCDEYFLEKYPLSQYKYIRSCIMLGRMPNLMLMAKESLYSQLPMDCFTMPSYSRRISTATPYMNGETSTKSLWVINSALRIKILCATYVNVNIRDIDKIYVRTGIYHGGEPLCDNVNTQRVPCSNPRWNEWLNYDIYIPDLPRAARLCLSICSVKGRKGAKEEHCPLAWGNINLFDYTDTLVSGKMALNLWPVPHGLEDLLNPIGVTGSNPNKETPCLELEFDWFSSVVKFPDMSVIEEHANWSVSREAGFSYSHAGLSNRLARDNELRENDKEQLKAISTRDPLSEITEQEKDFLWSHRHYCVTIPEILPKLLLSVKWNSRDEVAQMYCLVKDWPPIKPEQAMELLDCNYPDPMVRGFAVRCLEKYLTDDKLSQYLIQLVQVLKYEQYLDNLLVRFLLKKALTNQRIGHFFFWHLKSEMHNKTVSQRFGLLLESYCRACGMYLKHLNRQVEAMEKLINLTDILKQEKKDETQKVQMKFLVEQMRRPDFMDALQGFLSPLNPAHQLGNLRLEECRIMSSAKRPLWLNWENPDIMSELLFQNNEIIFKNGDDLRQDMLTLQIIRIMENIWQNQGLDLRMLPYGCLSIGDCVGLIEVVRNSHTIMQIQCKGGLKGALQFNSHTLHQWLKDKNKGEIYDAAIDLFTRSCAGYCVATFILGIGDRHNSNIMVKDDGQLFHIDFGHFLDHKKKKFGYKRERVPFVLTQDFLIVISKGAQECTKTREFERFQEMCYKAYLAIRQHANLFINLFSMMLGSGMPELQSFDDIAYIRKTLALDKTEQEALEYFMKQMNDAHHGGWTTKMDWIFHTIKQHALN
T4 sequence (P27986 whole entry partner): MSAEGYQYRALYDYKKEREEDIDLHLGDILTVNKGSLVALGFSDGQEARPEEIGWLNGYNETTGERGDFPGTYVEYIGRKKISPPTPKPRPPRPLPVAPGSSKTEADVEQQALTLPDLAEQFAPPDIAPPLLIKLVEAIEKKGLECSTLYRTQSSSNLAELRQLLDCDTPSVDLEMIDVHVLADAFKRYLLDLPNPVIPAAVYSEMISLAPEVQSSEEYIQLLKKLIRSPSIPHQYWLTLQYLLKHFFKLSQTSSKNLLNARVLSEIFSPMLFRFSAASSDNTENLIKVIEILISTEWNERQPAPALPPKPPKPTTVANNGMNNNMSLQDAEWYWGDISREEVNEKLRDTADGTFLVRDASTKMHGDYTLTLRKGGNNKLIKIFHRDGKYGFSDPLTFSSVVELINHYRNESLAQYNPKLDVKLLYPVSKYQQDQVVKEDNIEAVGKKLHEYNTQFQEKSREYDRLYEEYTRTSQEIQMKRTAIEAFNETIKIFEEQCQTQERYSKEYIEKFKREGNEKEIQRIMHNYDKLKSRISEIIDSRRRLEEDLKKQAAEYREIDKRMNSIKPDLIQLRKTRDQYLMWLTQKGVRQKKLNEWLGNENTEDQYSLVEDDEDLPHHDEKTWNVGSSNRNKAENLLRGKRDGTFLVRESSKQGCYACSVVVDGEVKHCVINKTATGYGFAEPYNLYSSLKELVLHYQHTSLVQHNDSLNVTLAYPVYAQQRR

As for `[2H]c1cc(C)c(NC(=O)c2cnc(Nc3cc(N4CCCCC4)nc(C)n3)s2)c(Cl)c1` [Compound I, N-(2-chloro-4-deuterio-6-methyl-phenyl)-2-[[2-methyl-6-(1-piperidyl)pyrimidin-4-yl]amino]thiazole-5-carboxamide], the inhibition at 0.001 µM in data set [1] (at 1 nM), in data set [2], in data set [3], in data set [5], in [8] and in data set [9] was > 50% throughout. Moreover, the inhibition at 0.001 µM in data set [10] was > 50%. Also, the inhibition at 0.01 µM in data set [1], in data set [2], in data set [3], in data set [4], in [5] and in data set [8] was > 50% throughout. Besides, the inhibition at 0.01 µM in data set [9] and in data set [10] was > 50% throughout. The IC50 in [6] was < 50 nM. Further, the “metabolic stability compared to dasatinib” value in data set [7] was “significantly greater stability”.
As for `[2H]c1cc(C)c(NC(=O)c2cnc(Nc3cc(N4CCC(O)CC4)nc(C)n3)s2)c(Cl)c1` [Compound II, N-(2-chloro-4-deuterio-6-methyl-phenyl)-2-[[6-(4-hydroxy-1-piperidyl)-2-methyl-pyrimidin-4-yl]amino]thiazole-5-carboxamide], the inhibition at 0.01 µM in data set [1], in data set [2], in data set [3], in data set [4], in data set [5] and in data set [8] was > 50% throughout. Besides, the inhibition at 0.01 µM in data set [9] and in [10] was > 50% each time. Besides, the inhibition at 0.001 µM in data set [2] was > 50%; in [3] it was > 50%; in data set [4] (at 1 nM), < 50%; in data set [5] it was > 50%; in data set [8], > 50%; in data set [9], > 50%. The inhibition at 0.001 µM in data set [11] and in data set [10] was > 50% in each case. Further, the inhibition at 0.1 µM in data set [4] (at 100 nM) was < 50%. The IC50 in data set [6] is < 50 nM.
As for `[2H]c1cc(C)c(NC(=O)c2cnc(Nc3cc(N4CC[C@H](O)C4)nc(C)n3)s2)c(Cl)c1` [Compound IV, N-(2-chloro-4-deutero-6-methylphenyl)-2-[[2-methyl-6-((S)-3-hydroxypyrrolidin-1-yl)pyrimidin-4-yl]amino]thiazole-5-carboxamide], the inhibition at 0.01 µM in data set [1], in data set [2], in data set [3], in [4], in data set [5] and in data set [8] was > 50% throughout. Moreover, the inhibition at 0.01 µM in data set [9] and in data set [10] was > 50% in each case. Further, the inhibition at 0.001 µM in [3], in [9], in data set [11] and in data set [10] was > 50% throughout. The IC50 in data set [6] was < 50 nM. Also, the “In vitro t1/2” value in data set [7] was determined as 1.47 h. Moreover, the “metabolic stability compared to dasatinib” value in [7] is reported as “significantly greater stability”.
As to `Cc1nc(Nc2ncc(C(=O)Nc3c(C)cccc3Cl)s2)cc(N2CCC(O)CC2)n1` [Compound IX, N-(2-chloro-6-methylphenyl)-2-[[2-methyl-6-(4-hydroxypiperidin-1-yl)pyrimidin-4-yl]amino]thiazole-5-carboxamide], the inhibition at 0.01 µM in data set [1], in data set [2], in data set [3], in data set [4], in data set [5] and in data set [8] was > 50% throughout. For the same compound, the inhibition at 0.01 µM in data set [9] and in data set [10] was > 50% each time. Besides, the inhibition at 0.001 µM in data set [3], in [9], in data set [11] and in data set [10] was > 50% in each case. In addition, the IC50 in data set [6] is < 50 nM.
As for `[2H]c1cc(C)c(NC(=O)c2cnc(Nc3cc(N4CC[C@@H](O)C4)nc(C)n3)s2)c(Cl)c1` [Compound V, N-(2-chloro-4-deutero-6-methylphenyl)-2-[[2-methyl-6-((R)-3-hydroxypyrrolidin-1-yl)pyrimidin-4-yl]amino]thiazole-5-carboxamide], the inhibition at 0.01 µM in data set [1], in [2], in [3], in data set [4], in [5] and in data set [8] was > 50% in each case. Moreover, the inhibition at 0.01 µM in data set [9] and in [10] was > 50% throughout. Also, the inhibition at 0.001 µM in data set [3], in [9], in data set [11] and in [10] was > 50% throughout. Also, the IC50 in data set [6] was < 50 nM. In [7], the “In vitro t1/2” value came to 1.12 h. Also, in data set [7], the “metabolic stability compared to dasatinib” value is on record as “significantly greater stability”.
